# Laboratory results published in patent US10596172B2 (Celgene CAR LLC, priority 2008, dated 2020).
# Read-outs that look alike come from different tables or passages of the source.
# How the values were obtained:
# [1] = biological target: BTK (Homo sapiens (Human), UniProt Q06187); experiment: Omnia assay for potency assessment against BTK; type: biochemical; details: [BTK]=5 nm; read-out: BTK Inhibition
# Description: Omnia Assay Protocol for Potency Assessment Against BTK
# The modified BTK-optimized reagent conditions for the above protocol are:
# [BTK]=5 nm, [ATP]=40 mM, [Y5-Sox]=10 mM (ATP KMapp˜36 mM).
# [2] = biological target: EGFR-WT (Homo sapiens (Human), UniProt P00533); experiment: Omnia assay for potency assessment against EGFR (WT); type: biochemical; details: wild-type EGFR; read-out: EGFR Wild Type Inhibition
# [3] = biological target: JAK3 (Homo sapiens (Human), UniProt P52333); experiment: Omnia assay for potency assessment against the active form of JAK3; type: biochemical; details: read-out: JAK3 Inhibition
# JAK3, sequence (P52333 whole entry): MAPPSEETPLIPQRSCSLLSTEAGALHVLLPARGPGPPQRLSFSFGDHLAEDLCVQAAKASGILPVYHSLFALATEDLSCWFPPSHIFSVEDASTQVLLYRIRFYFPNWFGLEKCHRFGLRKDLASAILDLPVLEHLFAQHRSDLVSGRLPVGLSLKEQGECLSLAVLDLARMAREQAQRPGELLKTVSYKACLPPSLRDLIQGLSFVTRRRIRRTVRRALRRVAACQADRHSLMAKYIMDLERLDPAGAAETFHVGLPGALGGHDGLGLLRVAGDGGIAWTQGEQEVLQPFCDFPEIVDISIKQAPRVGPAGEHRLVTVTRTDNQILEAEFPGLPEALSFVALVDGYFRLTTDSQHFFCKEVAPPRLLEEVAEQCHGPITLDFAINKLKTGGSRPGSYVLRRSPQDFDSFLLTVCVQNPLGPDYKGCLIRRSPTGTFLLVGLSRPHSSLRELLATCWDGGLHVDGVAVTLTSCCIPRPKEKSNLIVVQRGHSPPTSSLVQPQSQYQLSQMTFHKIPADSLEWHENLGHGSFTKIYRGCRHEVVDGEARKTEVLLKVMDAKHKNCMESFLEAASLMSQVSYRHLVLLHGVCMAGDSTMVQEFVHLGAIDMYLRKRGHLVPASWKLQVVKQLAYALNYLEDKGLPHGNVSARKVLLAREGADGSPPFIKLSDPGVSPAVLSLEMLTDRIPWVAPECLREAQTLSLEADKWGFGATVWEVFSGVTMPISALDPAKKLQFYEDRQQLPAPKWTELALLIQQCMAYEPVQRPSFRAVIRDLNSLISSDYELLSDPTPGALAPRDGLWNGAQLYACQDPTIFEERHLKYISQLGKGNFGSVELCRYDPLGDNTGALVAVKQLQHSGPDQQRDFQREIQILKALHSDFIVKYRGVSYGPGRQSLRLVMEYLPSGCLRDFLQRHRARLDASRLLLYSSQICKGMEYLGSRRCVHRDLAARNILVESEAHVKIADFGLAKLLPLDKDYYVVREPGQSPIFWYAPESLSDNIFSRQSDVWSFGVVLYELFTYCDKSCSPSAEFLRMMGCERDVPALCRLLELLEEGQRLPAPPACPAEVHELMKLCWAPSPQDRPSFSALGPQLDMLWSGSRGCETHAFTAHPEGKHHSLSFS
# Description: Briefly, 10× stocks of EGFR-WT (PV3872) from Invitrogen and EGFR-T790M/L858R (40350) from BPS Bioscience, San Diego, Calif., 1.13×ATP (AS001A) and appropriate Tyr-Sox conjugated peptide substrates (KCZ1001) were prepared in 1× kinase reaction buffer consisting of 20 mM Tris, pH 7.5, 5 mM MgCl2, 1 mM EGTA, 5 mM β-glycerophosphate, 5% glycerol (10× stock, KB002A) and 0.2 mM DTT (DS001A).
# The Omnia Assay Protocol for potency assessment against JAK3 was performed in a substantially similar manner as that described in Example 251 above except that the modified JAK3-optimized reagent conditions were:
# [JAK3]=5 nM, [ATP]=5 μM, [Y12-Sox]=5 μM (ATP KMapp˜5 μM).
# [4] = test system: B cell lymphoma cell lines; experiment: B cell lymphoma proliferation assay; type: cell-based; details: Homo sapiens
# [5] = DOHH-2, DOHH2 B cell lymphoma cell line, read-out: EC50 (μM) DOHH2
# [6] = WSUDLCL2, WSU-DLCL2 B cell lymphoma cell line, read-out: EC50 (μM) WSU-DLCL2
# BTK, sequence (Q06187 whole entry): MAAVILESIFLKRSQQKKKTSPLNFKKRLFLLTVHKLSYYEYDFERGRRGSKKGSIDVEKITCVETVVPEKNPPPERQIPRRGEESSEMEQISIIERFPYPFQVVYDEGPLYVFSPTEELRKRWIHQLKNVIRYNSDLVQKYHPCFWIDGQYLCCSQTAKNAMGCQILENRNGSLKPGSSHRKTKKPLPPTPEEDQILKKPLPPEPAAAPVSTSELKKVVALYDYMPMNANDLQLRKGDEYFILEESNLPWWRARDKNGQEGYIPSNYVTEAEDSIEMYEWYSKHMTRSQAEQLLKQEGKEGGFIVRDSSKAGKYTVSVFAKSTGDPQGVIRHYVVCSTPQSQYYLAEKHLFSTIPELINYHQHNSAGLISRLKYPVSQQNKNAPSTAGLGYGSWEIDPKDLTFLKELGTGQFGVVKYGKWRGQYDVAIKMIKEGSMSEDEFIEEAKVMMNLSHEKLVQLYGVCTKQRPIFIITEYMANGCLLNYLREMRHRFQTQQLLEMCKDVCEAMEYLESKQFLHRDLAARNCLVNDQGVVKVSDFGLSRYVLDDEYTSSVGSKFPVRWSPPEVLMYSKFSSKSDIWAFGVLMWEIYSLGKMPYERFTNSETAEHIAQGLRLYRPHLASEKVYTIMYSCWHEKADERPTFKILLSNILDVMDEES
Compound,IC50 [1] [nM],IC50 [2] [nM],IC50 [3] [nM],"EC50 [4, 5] [µM]","EC50 [4, 6] [µM]"
4-(4-(4-(3-acrylamidophenylamino)-5-fluoropyrimidin-2-ylamino)phenoxy)pyridine [Compound I-346],< 10,100 to 1000,,,
"C=CC(=O)Nc1ccc(Nc2nc(Nc3ccccc3)ncc2C)cc1 [Compound I-39, N-(4-(5-methyl-2-(phenylamino)pyrimidin-4-ylamino)phenyl) acrylamide]",,,< 10,1 to 10,1 to 10
"C=CC(=O)N1CCc2cc(Nc3nc(Nc4cccc(S(N)(=O)=O)c4)ncc3C)ccc2C1 [Compound I-40, 3-(4-(2-acryloyl-1,2,3,4-tetrahydroisoquinolin-6-ylamino)-5-methylpyrimidin-2-ylamino)benzenesulfonamide]",,,< 10,0.1 to 1,1 to 10
"C=CC(=O)N1CCOc2ccc(Nc3nc(Nc4ccc(OC)nc4)ncc3C(C)=O)cc21 [Compound I-170, 1-{6-[5-Acetyl-2-(6-methoxy-pyridin-3-ylamino)-pyrimidin-4-ylamino]-2,3-dihydro-benzo[1,4]oxazin-4-yl}-propenone]",,10 to 100,,,
"C=CC(=O)N1CCC[C@H](Nc2nc(Nc3ccc(OC)nc3)ncc2F)C1 [Compound I-197, (S)-1-(3-(5-fluoro-2-(6-methoxypyridin-3-ylamino)pyrimidin-4-ylamino)piperidin-1-yl)prop-2-en-1-one]",100 to 1000,100 to 1000,,,
"C=CC(=O)Nc1cccc(Nc2nc(Nc3ccccc3)ncc2C(F)(F)F)c1 [Compound I-245, N-(3-(5-trifluoromethyl-2-(phenylamino)pyrimidin-4-ylamino)phenyl)acrylamide]",,,< 10,1 to 10,> 10
"C=CC(=O)Nc1cccc(Nc2nc(Nc3ccc(OCCOC)c(OCCOC)c3)ncc2F)c1 [Compound I-277, N-(3-(2-(3,4-bis(2-methoxyethoxy)phenylamino)-5-fluoropyrimidin-4-ylamino)phenyl)acrylamide]",< 10,10 to 100,,,
"C=CC(=O)Nc1cccc(Nc2ncc(F)c(Nc3ccc(O[C@H]4CCOC4)cc3)n2)c1 [Compound I-338, (S)—N-(3-(5-fluoro-4-(4-(tetrahydrofuran-3-yloxy)phenylamino)pyrimidin-2-ylamino)phenyl)acrylamide]",,10 to 100,,,
"C=CC(=O)Nc1cccc(Nc2nc(Nc3ccc(OCCOCCNC(=O)CCCC(=O)NCCCOCCOCCOCCCNC(=O)CCCC[C@@H]4SC[C@@H]5NC(=O)N[C@@H]54)cc3)ncc2F)c1 [Compound I-363, N1-(2-(2-(4-(4-(3-acrylamidophenylamino)-5-fluoropyrimidin-2-ylamino)phenoxy)ethoxy)ethyl)-N5-(15-oxo-19-((3aS,4S,6aR)-2-oxohexahydro-1H-thieno[3,4-d]imidazol-4-yl)-4,7,10-trioxa-14-azanonadecyl)glutaramide]",< 10,< 10,,,
"C=CC(=O)Nc1cccc(Nc2nc(Nc3ccc(O[C@H](C)CO)c(F)c3)ncc2F)c1 [Compound I-372, (R)—N-(3-(5-fluoro-2-(3-fluoro-4-(1-hydroxypropan-2-yloxy)phenylamino)pyrimidin-4-ylamino)phenyl)acrylamide]",< 10,10 to 100,,,
"C=CC(=O)Nc1cccc(Nc2nc(Nc3ccc(O[C@H](C)COC(=O)[C@@H](N)C(C)C)c(F)c3)ncc2F)c1 [Compound I-374, (S)-((R)-2-(4-(4-(3-acrylamidophenylamino)-5-fluoropyrimidin-2-ylamino)-2-fluorophenoxy)propyl) 2-amino-3-methylbutanoate]",< 10,< 10,,,
"C=CC(=O)Nc1cccc(Nc2nc(Nc3ccc(OCCN=[N+]=[N-])cc3)ncc2F)c1 [Compound I-376, N-(3-(2-(4-(2-azidoethoxy)phenylamino)-5-fluoropyrimidin-4-ylamino)phenyl)acrylamide]",< 10,10 to 100,,,
"C=CC(=O)Nc1cccc(Nc2nc(Nc3ccc(O[C@@H](C)COC(=O)[C@@H](N)C(C)C)c(F)c3)ncc2F)c1 [Compound I-377, (S)-((S)-2-(4-(4-(3-acrylamidophenylamino)-5-fluoropyrimidin-2-ylamino)-2-fluorophenoxy)propyl) 2-amino-3-methylbutanoate]",,10 to 100,,,
COCCOc1ccc(Nc2ncc(F)c(Nc3ccc(CC(=O)C=C4CCC4)cc3)n2)cc1F [Compound I-378],< 10,10 to 100,,,
"C=CC(=O)Nc1cccc(Nc2nc(Nc3ccc(OCCOCCOCCN=[N+]=[N-])cc3)ncc2F)c1 [Compound I-379, N-(3-(2-(4-(2-(2-(2-azidoethoxy)ethoxy)ethoxy)phenylamino)-5-fluoropyrimidin-4-ylamino)phenyl)acrylamide]",,100 to 1000,,,
"C=CC(=O)Nc1cccc(Nc2ncc(F)c(Nc3cccc(OCCN4CCOCC4)c3)n2)c1 [Compound I-382, N-(3-(5-fluoro-4-(3-(2-morpholinoethoxy)phenylamino)pyrimidin-2-ylamino)phenyl)acrylamide]",10 to 100,100 to 1000,,,

# Other lines, results leading:
IC50 [1] [nM],IC50 [2] [nM],IC50 [3] [nM],"EC50 [4, 5] [µM]","EC50 [4, 6] [µM]",Compound
1000 to 10000,1000 to 10000,,,,"C=CC(=O)Nc1cccc(Oc2nc(Nc3cc(OC)c(OC)c(OC)c3)ncc2F)c1 [Compound I-148, N-(3-(5-fluoro-2(3,4,5-trimethoxyphenylamino)pyrimidin-4-yloxy)phenyl)acrylamide]"
< 10,< 10,< 10,,,"Cc1cccc(Nc2nc(Nc3cccc(NC(=O)/C=C/CN(C)C)c3)ncc2C)c1 [Compound I-360, (E)-4-(dimethylamino)-N-(3-(5-methyl-4-(m-tolylamino)pyrimidin-2-ylamino)phenyl)but-2-enamide]"
< 10,100 to 1000,,,,"C=CC(=O)Nc1cccc(Nc2nc(Nc3ccc(Cl)c(O[C@@H](C)COC(=O)[C@@H](N)C(C)C)c3)ncc2F)c1 [Compound I-369, (S)-((S)-2-(5-(4-(3-acrylamidophenylamino)-5-fluoropyrimidin-2-ylamino)-2-chlorophenoxy)propyl)-2-amino-3-methylbutanoate]"
< 10,< 10,,,,"C=CC(=O)Nc1cccc(Nc2nc(Nc3ccc(OCCOCCNC(=O)OC(C)(C)C)cc3)ncc2F)c1 [Compound I-370, tert-butyl 2-(2-(4-(4-(3-acrylamidophenylamino)-5-fluoropyrimidin-2-ylamino)phenoxy)ethoxy)ethylcarbamate]"
< 10,10 to 100,,,,"C=CC(=O)Nc1cccc(Nc2nc(Nc3ccc(OCCOCCN=[N+]=[N-])cc3)ncc2F)c1 [Compound I-371, N-(3-(2-(4-(2-(2-azidoethoxy)ethoxy)phenylamino)-5-fluoropyrimidin-4-ylamino)phenyl)acrylamide]"
< 10,10 to 100,,,,"C=CC(=O)Nc1cccc(Nc2nc(Nc3ccc(O[C@@H](C)CO)c(F)c3)ncc2F)c1 [Compound I-373, (S)—N-(3-(5-fluoro-2-(3-fluoro-4-(1-hydroxypropan-2-yloxy)phenylamino)pyrimidin-4-ylamino)phenyl)acrylamide]"
< 10,< 10,,,,"C=CC(=O)Nc1cccc(Nc2ncc(F)c(Nc3ccc(OCCOC)cc3)n2)c1 [Compound I-381, N-(3-(5-fluoro-4-(4-(2-methoxyethoxy)phenylamino)pyrimidin-2-ylamino)phenyl)acrylamide]"
